Assay results reported in US20110098278A1 (priority 2009, published 2011).
Where “and” joins values, the source holds several entries; their conditions need not be identical. Identical values can stand only once. Entries after “also recorded” stand apart in the source; their conditions may differ. Counter-ions that a name gives are not always drawn.

Tests used:
[1] = Local galantamine concentration within the stomach after a typical dose; conditions: following a typical 24 mg dose
ferret = assay: Emetic activity (retching and vomiting) in the ferret
[2] = system: human stomach circular smooth muscle; assay: Ex vivo human stomach circular smooth muscle, electrical field stimulation; format: cell-based; conditions: human stomach strips under EFS; 100 nM to 100 μM
[3] = system: rabbit stomach circular smooth muscle; assay: Ex vivo rabbit stomach circular smooth muscle, electrical field stimulation; format: cell-based; conditions: rabbit stomach strips under EFS; 100 nM to 100 μM
rat = assay: Comparative acute toxicity (rat behavior) of sc and po galantamine; format: in vivo; conditions: individual rats
Sprague Dawley rat = assay: PICA behavior (kaolin consumption) in the Sprague Dawley rat as surrogate for emesis; format: in vivo; conditions: for Cumulative mean ± SD kaolin consumption: 40 mg base/kg po
Experimental: This is a well established model for this purpose in the rat (Takeda N et al (1993) 45 817-21).
Once determined, a comparison was made of the effects of these doses on kaolin consumption over a 0-96 hour period in 24 h increments.
In detail groups of 10 male Sprague Dawley rats were habituated to kaolin for 3 days, then singly housed in grid-bottomed cages and habituated for a further 2 days prior to dosing. On the day of drug administration, the animals were food-deprived for 1 h prior to dosing. […] Access to a weighed quantity of food and kaolin was then restored. Food and kaolin was weighed 24, 48, 72 and 96 h after dosing.

[4] = 20 mg (free base)/kg oral or similar molar dose
[5] = 20 mg/kg p.o., 2 hr. observation, individual ferrets, listed as Galantamine HBr, hydrobromide

COc1ccc2c3c1O[C@H]1C[C@@H](O)C=C[C@@]31CCN(C)C2 [Galantamine, (4aS,6R,8aS)-4a,5,9,10,11,12-hexahydro-3-methoxy-11-methyl-6H-benzofuro[3a,3,2ef][2]benzazepin-6-ol hydrobromide]
Local concentrations within the stomach [1]: 200 to 400 µM
animals dosed that retched (ferret; [4]): 55%
animals dosed that vomited (ferret; [4]): 40%
Total number of individual incidences of: Retching (ferret; 20 mg/kg p.o. (galantamine free base content), 2 hr. observation, individual ferrets, listed as Galantamine HBr, hydrobromide): 21 and 29 and 18 and 0 (9×) and 31 and 3 (2×) and 6 and 2 and 5 and 13 and 22
Time (min) to onset of: Retching (ferret; [5]): 33 min and 3 min and 5 min (3×) and >120 min (8×) and 41 min and 11 min and 10 min and 7 min (2×) and 6 min (2×)
Time (min) to onset of: Vomiting (ferret; [5]): 33 min and 75 min and 5 min (2×) and >120 min (11×) and 37 min and 10 min and 13 min and 6 min and 41 min
Total number of individual incidences of: Vomiting (ferret; [5]): 4 (2×) and 1 (6×) and 0 (11×) and 2
stimulation of smooth muscle contractions (change in force production) [2]: evidence of a dose response
stimulation of smooth muscle contractions (change in force production) [3]: evidence of a dose response
Effect on rat behavior (rat; 3.5 mg/kg sc, 2 min post dose, hydrobromide): Rat 1: purposeless chewing, mouth; also recorded: Rat 3: purposeless chewing, mouth
Effect on rat behavior (rat; 3.5 mg/kg sc, 5 min post-dose, hydrobromide): Rat 1: purposeless chewing, mouth movements,; also recorded: Rat 3: As per 2 min
Effect on rat behavior (rat; 3.5 mg/kg sc, 10 min post-dose, hydrobromide): Rat 1: Tremors, flattened rostral body; also recorded: Rat 3: purposeless chewing, mouth
Effect on rat behavior (rat; 3.5 mg/kg sc, 20 min post-dose, hydrobromide): Rat 1: Quiescent, flattened body posture,; also recorded: Rat 3: Some ambulation restored symptoms
Effect on rat behavior (rat; 3.5 mg/kg sc, 30 min post-dose, hydrobromide): Rat 1: Quiescent, flattened body posture,; also recorded: Rat 3: Some ambulation restored
Effect on rat behavior (rat; 3.5 mg/kg sc, 45 min post-dose): Rat 1: food consumption and more
Effect on rat behavior (rat; 3.5 mg/kg sc, 1 h, hydrobromide): Rat 1: Normal; also recorded: Rat 3: Normal
Effect on rat behavior (rat; 40 mg/kg po, 10 min post-dose, hydrobromide): Rat 6: Quiescent, purposeless; also recorded: Rat 7: Quiescent, purposeless chewing,
Effect on rat behavior (rat; 40 mg/kg po, 20 min post-dose, hydrobromide): Rate 6 as per 10 min + arching; also recorded: Rat 7: grooming + purposeless
Effect on rat behavior (rat; 40 mg/kg po, 30 min post-dose): Rat 6: quiescent, purposeless chewing,
Effect on rat behavior (rat; 40 mg/kg po, 45 min post-dose, hydrobromide): Rat 6: flattened body posture, chewing,; also recorded: Rat 7: grooming, sawdust consumption
Effect on rat behavior (rat; 40 mg/kg po, 1 h, hydrobromide): Rat 6: flattened body posture, tremor; also recorded: Rat 7: Grooming, sawdust
Effect on rat behavior (rat; 40 mg/kg po, 1.5 h, hydrobromide): Rat 7: quiet, falttened posture
Effect on rat behavior (rat; 40 mg/kg po, 2 h, hydrobromide): Rat 6: much improved; also recorded: Rat 7: much improved
Effect on rat behavior (rat; 40 mg/kg po, 3 h, hydrobromide): Rat 6: normal; also recorded: Rat 7: normal
kaolin consumption compared with controls (in words) (Sprague Dawley rat; 3.5 mg/kg subcutaneous, over the whole 96 h period): no increase at all in kaolin consumption
Cumulative mean ± SD kaolin consumption (Sprague Dawley rat; 24 h): 2.73 ± 1.4 g
Cumulative mean ± SD kaolin consumption (Sprague Dawley rat; 48 h): 3.36 ± 1.68 g
Cumulative mean ± SD kaolin consumption (Sprague Dawley rat; 72 h): 4.07 ± 1.88 g
Cumulative mean ± SD kaolin consumption (Sprague Dawley rat; 96 h, hydrobromide): 4.69 ± 2.43 g
Cumulative mean ± SD kaolin consumption (Sprague Dawley rat; 96 h, listed as galantamine, hydrobromide): 4.69 ± 2.43 g
kaolin consumption / PICA behavior (in words) (Sprague Dawley rat; 40 mg/kg oral, over 96 h, hydrobromide): significantly higher; also recorded: marked PICA behavior
rat kaolin consumption (g) over 24 h post-dose (Sprague Dawley rat; single oral dose 40 mg base/kg, Mean): 1.79 g
rat kaolin consumption (g) over 24 h post-dose (Sprague Dawley rat; single oral dose 40 mg base/kg, individual rats 1-10, hydrobromide): 1.06 g and 0.35 g and 0.02 g and 3.14 g and 4.47 g and 1.62 g and 0.16 g and 2.93 g and 3.11 g and 1.03 g
rat kaolin consumption (g) over 24 h post-dose (Sprague Dawley rat; single subcutaneous dose of 3.5 mg base/kg, Mean (rat 7 omitted as outlier)): 0.25 g
rat kaolin consumption (g) over 24 h post-dose (Sprague Dawley rat; single subcutaneous dose of 3.5 mg base/kg, individual rats 1-10, hydrobromide): 0.67 g and 0.36 g and 0.88 g and 0.08 g and *1.57 g and 0.00 g (3×) and 0.21 g and 0.05 g
